Assay results reported in ChEMBL document CHEMBL1152667, “Synthesis and radiopharmacological investigation of 3-[4'-[(18)F]fluorobenzylidene]indolin-2-one as possible tyrosine kinase inhibitor” (Bioorg Med Chem, 2009).

Columns and labels:
[1] = tested on: Lung; assay: Biodistribution in Wistar rat lung assessed as standard uptake value at 1.7 MBq, iv administered as single dose measured after 10 mins post-injection by gamma counting; type: ADME, organism-based; details: in vivo
[2] = tested on: Kidney; assay: Biodistribution in Wistar rat kidney assessed as standard uptake value at 1.7 MBq, iv administered as single dose measured after 60 mins post-injection by gamma counting; type: ADME, organism-based; details: in vivo, 1 h
[3] = tested on: Brain; assay: Biodistribution in Wistar rat brain assessed as standard uptake value at 1.7 MBq, iv administered as single dose measured after 5 mins post-injection by gamma counting; type: ADME, organism-based; details: in vivo
[4] = tested on: Brain; assay: Biodistribution in Wistar rat brain assessed as standard uptake value at 1.7 MBq, iv administered as single dose measured after 1 min post-injection by gamma counting; type: ADME, organism-based; details: in vivo
[5] = Biodistribution in Wistar rat hair/skin assessed as standard uptake value at 1.7 MBq, iv administered as single dose measured after 5 mins post-injection by gamma counting; type: ADME, organism-based; details: in vivo
[6] = Biodistribution in Wistar rat thyroid gland assessed as standard uptake value at 1.7 MBq, iv administered as single dose measured after 10 mins post-injection by gamma counting; type: ADME, organism-based; details: in vivo
[7] = tested on: Harderian gland; assay: Biodistribution in Wistar rat harderian gland assessed as standard uptake value at 1.7 MBq, iv administered as single dose measured after 10 mins post-injection by gamma counting; type: ADME, organism-based; details: in vivo
[8] = Biodistribution in Wistar rat hair/skin assessed as standard uptake value at 1.7 MBq, iv administered as single dose measured after 1 min post-injection by gamma counting; type: ADME, organism-based; details: in vivo
[9] = Ratio of drug level in kidney to blood in Wistar rat at 1.7 MBq, iv administered as single dose measured after 60 mins post-injection; type: ADME, organism-based
[10] = tested on: Testes; assay: Biodistribution in Wistar rat testes at 1.7 MBq, iv administered as single dose measured after 60 mins post-injection by gamma counting; type: ADME, organism-based, Testis; details: in vivo, 1 h
[11] = tested on: Pancreas; assay: Biodistribution in Wistar rat pancreas assessed as standard uptake value at 1.7 MBq, iv administered as single dose measured after 60 mins post-injection by gamma counting; type: ADME, organism-based; details: in vivo, 1 h
[12] = Metabolic stability in Wistar rat blood assessed as compound remaining at 30 MBq, iv after 1 min by radio-HPLC analysis; type: ADME, organism-based; details: read-out: Stability
[13] = Biodistribution in Wistar rat stomach at 1.7 MBq, iv administered as single dose measured after 60 mins post-injection by gamma counting; type: ADME, organism-based; details: in vivo, 1 h
[14] = Biodistribution in Wistar rat brown adipose tissue assessed as standard uptake value at 1.7 MBq, iv administered as single dose measured after 1 min post-injection by gamma counting; type: ADME, organism-based; details: in vivo
[15] = tested on: Brain; assay: Biodistribution in Wistar rat brain at 1.7 MBq, iv administered as single dose measured after 1 min post-injection by gamma counting; type: ADME, organism-based; details: in vivo
[16] = tested on: Spleen; assay: Biodistribution in Wistar rat spleen at 1.7 MBq, iv administered as single dose measured after 60 mins post-injection by gamma counting; type: ADME, organism-based; details: in vivo, 1 h
[17] = Ratio of drug level in lung to blood in Wistar rat at 1.7 MBq, iv administered as single dose measured after 60 mins post-injection; type: ADME, organism-based
[18] = tested on: Femur; assay: Biodistribution in Wistar rat femur assessed as standard uptake value at 1.7 MBq, iv administered as single dose measured after 10 mins post-injection by gamma counting; type: ADME, organism-based; details: in vivo
[19] = tested on: Adrenal gland; assay: Biodistribution in Wistar rat adrenal gland assessed as standard uptake value at 1.7 MBq, iv administered as single dose measured after 1 min post-injection by gamma counting; type: ADME, organism-based; details: in vivo
[20] = tested on: Thymus; assay: Biodistribution in Wistar rat thymus at 1.7 MBq, iv administered as single dose measured after 30 mins post-injection by gamma counting; type: ADME, organism-based; details: in vivo, 0.5 h
[21] = tested on: Blood; assay: Biodistribution in Wistar rat blood assessed as standard uptake value at 1.7 MBq, iv administered as single dose measured after 1 min post-injection by gamma counting; type: ADME, organism-based; details: in vivo
[22] = Biodistribution in Wistar rat thyroid gland at 1.7 MBq, iv administered as single dose measured after 10 mins post-injection by gamma counting; type: ADME, organism-based; details: in vivo
[23] = Biodistribution in Wistar rat thyroid gland assessed as standard uptake value at 1.7 MBq, iv administered as single dose measured after 60 mins post-injection by gamma counting; type: ADME, organism-based; details: in vivo, 1 h
[24] = Ratio of drug level in pancreas to blood in Wistar rat at 1.7 MBq, iv administered as single dose measured after 60 mins post-injection; type: ADME, organism-based
[25] = Biodistribution in Wistar rat brown adipose tissue assessed as standard uptake value at 1.7 MBq, iv administered as single dose measured after 5 mins post-injection by gamma counting; type: ADME, organism-based; details: in vivo
[26] = tested on: Heart; assay: Biodistribution in Wistar rat heart assessed as standard uptake value at 1.7 MBq, iv administered as single dose measured after 5 mins post-injection by gamma counting; type: ADME, organism-based; details: in vivo
[27] = Metabolic stability in Wistar rat blood assessed as compound remaining at 30 MBq, iv after 10 mins by radio-HPLC analysis; type: ADME, organism-based; details: read-out: Stability
[28] = tested on: Spleen; assay: Biodistribution in Wistar rat spleen assessed as standard uptake value at 1.7 MBq, iv administered as single dose measured after 5 mins post-injection by gamma counting; type: ADME, organism-based; details: in vivo
[29] = tested on: Adrenal gland; assay: Biodistribution in Wistar rat adrenal gland at 1.7 MBq, iv administered as single dose measured after 10 mins post-injection by gamma counting; type: ADME, organism-based; details: in vivo
[30] = tested on: Pancreas; assay: Biodistribution in Wistar rat pancreas assessed as standard uptake value at 1.7 MBq, iv administered as single dose measured after 30 mins post-injection by gamma counting; type: ADME, organism-based; details: in vivo, 0.5 h
[31] = tested on: Mus musculus; assay: Metabolic stability in mouse at 11 MBq, iv after 45 mins by radio-HPLC analysis; type: ADME, organism-based; details: in vivo, 0.75 h
[32] = tested on: Spleen; assay: Biodistribution in Wistar rat spleen at 1.7 MBq, iv administered as single dose measured after 1 min post-injection by gamma counting; type: ADME, organism-based; details: in vivo
[33] = tested on: Thymus; assay: Biodistribution in Wistar rat thymus at 1.7 MBq, iv administered as single dose measured after 10 mins post-injection by gamma counting; type: ADME, organism-based; details: in vivo
[34] = tested on: Thymus; assay: Biodistribution in Wistar rat thymus assessed as standard uptake value at 1.7 MBq, iv administered as single dose measured after 1 min post-injection by gamma counting; type: ADME, organism-based; details: in vivo
[35] = tested on: Heart; assay: Biodistribution in Wistar rat heart at 1.7 MBq, iv administered as single dose measured after 60 mins post-injection by gamma counting; type: ADME, organism-based; details: in vivo, 1 h
[36] = tested on: Heart; assay: Biodistribution in Wistar rat heart at 1.7 MBq, iv administered as single dose measured after 30 mins post-injection by gamma counting; type: ADME, organism-based; details: in vivo, 0.5 h
[37] = tested on: Femur; assay: Biodistribution in Wistar rat femur at 1.7 MBq, iv administered as single dose measured after 5 mins post-injection by gamma counting; type: ADME, organism-based; details: in vivo
[38] = tested on: Heart; assay: Biodistribution in Wistar rat heart assessed as standard uptake value at 1.7 MBq, iv administered as single dose measured after 30 mins post-injection by gamma counting; type: ADME, organism-based; details: in vivo, 0.5 h
[39] = tested on: Spleen; assay: Biodistribution in Wistar rat spleen assessed as standard uptake value at 1.7 MBq, iv administered as single dose measured after 10 mins post-injection by gamma counting; type: ADME, organism-based; details: in vivo
[40] = tested on: Pancreas; assay: Biodistribution in Wistar rat pancreas at 1.7 MBq, iv administered as single dose measured after 60 mins post-injection by gamma counting; type: ADME, organism-based; details: in vivo, 1 h
[41] = tested on: Muscle tissue; assay: Biodistribution in Wistar rat muscle assessed as standard uptake value at 1.7 MBq, iv administered as single dose measured after 10 mins post-injection by gamma counting; type: ADME, organism-based; details: in vivo
[42] = tested on: Thymus; assay: Biodistribution in Wistar rat thymus assessed as standard uptake value at 1.7 MBq, iv administered as single dose measured after 5 mins post-injection by gamma counting; type: ADME, organism-based; details: in vivo

SMILES: O=C1Nc2ccccc2/C1=C/c1ccc([18F])cc1
- SUV [1]: 0.85%
- SUV [2]: 0.99%
- SUV [3]: 1.67%
- SUV [4]: 2.84%
- SUV [5]: 0.92%
- SUV [6]: 0.75%
- SUV [7]: 1.91%
- SUV [8]: 0.67%
- Kp at 1 h [9]: 7.6
- Drug uptake [10]: 0.24 %ID
- SUV [11]: 0.3%
- remaining at 1 min [12]: 70%
- Drug uptake [13]: 0.6 %ID
- SUV [14]: 1.42%
- Drug uptake [15]: 3.09 %ID
- Drug uptake [16]: 0.04 %ID
- Kp at 1 h [17]: 1.4
- SUV [18]: 0.51%
- SUV [19]: 4.95%
- Drug uptake [20]: 0.08 %ID
- SUV [21]: 0.83%
- Drug uptake [22]: 0.05 %ID
- SUV [23]: 0.16%
- Kp at 1 h [24]: 2.1
- SUV [25]: 2.29%
- SUV [26]: 1.33%
- remaining at 10 min [27]: 18%
- SUV [28]: 0.79%
- Drug uptake [29]: 0.1 %ID
- SUV [30]: 0.55%
- Stability [31]: Unstable
- Drug uptake [32]: 0.31 %ID
- Drug uptake [33]: 0.23 %ID
- SUV [34]: 1.1%
- Drug uptake [35]: 0.08 %ID
- Drug uptake [36]: 0.18 %ID
- Drug uptake [37]: 0.35 %ID
- SUV [38]: 0.44%
- SUV [39]: 0.52%
- Drug uptake [40]: 0.07 %ID
- SUV [41]: 0.69%
- SUV [42]: 0.82%
